US20130252930A1 (BIOMARIN PHARMACEUTICAL INC., priority 2010, published 2013)
Where two headings read alike, the source gives them in different places.

How the values were obtained:
CYP17 (H295R cells) = target: T1, CYP17 (H295R cells) (Homo sapiens, UniProt P05093); experiment: CYP17 cellular assay (IC50), testosterone in H295R cells (Biological Example 7); format: cell-based; settings: H295R cells
T1 construct: endogenous in cells; host or cells: H295R cells
T1 sequence (P05093 1-508): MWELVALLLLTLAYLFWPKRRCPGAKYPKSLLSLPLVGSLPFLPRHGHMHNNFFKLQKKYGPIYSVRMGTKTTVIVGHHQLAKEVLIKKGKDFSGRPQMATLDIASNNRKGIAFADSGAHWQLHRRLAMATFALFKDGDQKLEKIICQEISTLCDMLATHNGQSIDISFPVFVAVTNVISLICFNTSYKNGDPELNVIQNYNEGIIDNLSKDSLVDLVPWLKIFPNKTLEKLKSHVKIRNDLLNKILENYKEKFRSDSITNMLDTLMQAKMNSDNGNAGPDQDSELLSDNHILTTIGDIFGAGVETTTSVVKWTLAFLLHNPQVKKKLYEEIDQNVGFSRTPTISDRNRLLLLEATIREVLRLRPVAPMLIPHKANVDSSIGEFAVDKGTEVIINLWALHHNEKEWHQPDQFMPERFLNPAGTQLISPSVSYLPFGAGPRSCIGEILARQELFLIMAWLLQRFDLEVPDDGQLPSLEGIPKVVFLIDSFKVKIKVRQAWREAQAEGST
Procedure, shortened: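 H295R cells cultured 24 h, then exposed to compound at 100, 10, 1, 0.1 nM final in serum-free DMEM/F-12 with ITS+ and 0.1% methanol for 24 h at 37 °C. Medium testosterone measured by ELISA and plotted against compound concentration.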

[1] = tested on: rat Cyp11B enzyme (rat adrenal mitochondria); experiment: CYP11B enzymatic assay (% inhibition at 100 nM) (Biological Example 9); format: biochemical; settings: for Biological Example No. 9: CYP11B percent inhibition at 100 nM: 100 nM compound, cortisol by ELISA
Procedure, shortened: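 Sprague Dawley rat adrenal mitochondria were incubated with compound at 100 nM, 0.5 mM NADPH and 0.1 μM 11-deoxycortisol (pH 7.4 Tris buffer) for 60 min at 37 °C. Cortisol was measured by ELISA and corrected by subtracting the no-NADPH background. % inhibition is relative to the no-compound reaction.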

[2] = target: T2, CYP17 (human testicular microsome) (Homo sapiens, UniProt P05093); experiment: CYP17 enzymatic assay (IC50) (Biological Example 4); format: biochemical; settings: human testicular microsome
T2 construct: using microsomal fraction from human testis (Celsis Cat #S00110) as the enzyme source; tissue Celsis S00110; host or cells: human testis microsomal fraction
T2 sequence (P05093 1-508): T1 sequence (P05093 1-508)

[3] = testosterone by ELISA, 24 hours, read-out: Biological Example No. 7: CYP17 cellular assay IC50
[4] = DHEA by ELISA, read-out: Biological Example No. 4: CYP17 enzymatic assay IC50

SMILES	IC50 (CYP17 (H295R cells); testosterone, read-out: CYP17 cellular assay IC50 (Biological Example No. 7)) [nM]	CYP11B enzymatic assay % inhibition at 100 nM (Biological Example No. 9) ([1]; compound at 100 nM)	IC50 ([2]; read-out: CYP17 enzymatic assay IC50 (Biological Example No. 4)) [nM]	IC50 (CYP17 (H295R cells); [3]) [nM]	Biological Example No. 9: CYP11B percent inhibition at 100 nM [1]	IC50 [2, 4] [nM]
CC(=O)NC1CC[C@@]2(C)C(=CCC3C2CC[C@]2(C)C(n4ccnc4)=CCC32)C1 (stereo partly drawn) [Compound 237, N-((10R,13S)-17-(1H-imidazol-1-yl)-10,13-dimethyl-2,3,4,7,8,9,10,11,12,13,14,15-dodecahydro-1H-cyclopenta[a]phenanthren-3-yl)acetamide]	< 15	U (U means the compound had a percent inhibition of greater than or equal to 32%)	< 11	–	–	–
C[C@]12CC[C@H]3[C@@H](CC=C4C[C@@H](O)CC[C@@]43C)C1=CC=C2c1cccnc1 [Compound 79, (3S,10R,13S)-10,13-dimethyl-17-(pyridin-3-yl)-2,3,4,7,8,9,10,11,12,13-decahydro-1H-cyclopenta[a]phenanthren-3-ol]	–	–	–	< 15	T (T means the compound had a percent inhibition of less than 32% when tested at 100 nM)	< 11
C[C@]12CC(O)C[C@@H]1CC[C@@H]1[C@@H]2CC[C@]2(C)C(n3ccnc3)=CC[C@@H]12 (stereo partly drawn) [Compound 109, (3aS,5aS)-6-(1H-imidazol-1-yl)-3a,5a-dimethyl-1,2,3,3a,3b,4,5,5a,8,8a,8b,9,10,10a-tetradecahydrodicyclopenta[a,f]naphthalen-2-ol]	–	–	–	< 15	U (U means the compound had a percent inhibition of greater than or equal to 32%)	< 11
